Laboratory results taken from patent publication US7153865B2, “N-type calcium channel antagonists for the treatment of pain” (Astrazeneca AB, priority 2001, dated 2006).

Key:
[1] = test system: formalin-induced nocifensive behaviours; assay: Formalin test; assay type: in vivo, rats; details: dose 60, time 40, route IP (units of dose and time not given)
N-type calcium channel = N-type calcium channel (Homo sapiens, UniProt Q00975); assay: N-channel FLIPR (Fluorescent Laser Imaging Plate Reader) assay; assay type: cell-based; details: differentiated IMR32 cells, 80 mM K+ stimulus; unit inferred
N-type calcium channel, sequence (Q00975 whole entry): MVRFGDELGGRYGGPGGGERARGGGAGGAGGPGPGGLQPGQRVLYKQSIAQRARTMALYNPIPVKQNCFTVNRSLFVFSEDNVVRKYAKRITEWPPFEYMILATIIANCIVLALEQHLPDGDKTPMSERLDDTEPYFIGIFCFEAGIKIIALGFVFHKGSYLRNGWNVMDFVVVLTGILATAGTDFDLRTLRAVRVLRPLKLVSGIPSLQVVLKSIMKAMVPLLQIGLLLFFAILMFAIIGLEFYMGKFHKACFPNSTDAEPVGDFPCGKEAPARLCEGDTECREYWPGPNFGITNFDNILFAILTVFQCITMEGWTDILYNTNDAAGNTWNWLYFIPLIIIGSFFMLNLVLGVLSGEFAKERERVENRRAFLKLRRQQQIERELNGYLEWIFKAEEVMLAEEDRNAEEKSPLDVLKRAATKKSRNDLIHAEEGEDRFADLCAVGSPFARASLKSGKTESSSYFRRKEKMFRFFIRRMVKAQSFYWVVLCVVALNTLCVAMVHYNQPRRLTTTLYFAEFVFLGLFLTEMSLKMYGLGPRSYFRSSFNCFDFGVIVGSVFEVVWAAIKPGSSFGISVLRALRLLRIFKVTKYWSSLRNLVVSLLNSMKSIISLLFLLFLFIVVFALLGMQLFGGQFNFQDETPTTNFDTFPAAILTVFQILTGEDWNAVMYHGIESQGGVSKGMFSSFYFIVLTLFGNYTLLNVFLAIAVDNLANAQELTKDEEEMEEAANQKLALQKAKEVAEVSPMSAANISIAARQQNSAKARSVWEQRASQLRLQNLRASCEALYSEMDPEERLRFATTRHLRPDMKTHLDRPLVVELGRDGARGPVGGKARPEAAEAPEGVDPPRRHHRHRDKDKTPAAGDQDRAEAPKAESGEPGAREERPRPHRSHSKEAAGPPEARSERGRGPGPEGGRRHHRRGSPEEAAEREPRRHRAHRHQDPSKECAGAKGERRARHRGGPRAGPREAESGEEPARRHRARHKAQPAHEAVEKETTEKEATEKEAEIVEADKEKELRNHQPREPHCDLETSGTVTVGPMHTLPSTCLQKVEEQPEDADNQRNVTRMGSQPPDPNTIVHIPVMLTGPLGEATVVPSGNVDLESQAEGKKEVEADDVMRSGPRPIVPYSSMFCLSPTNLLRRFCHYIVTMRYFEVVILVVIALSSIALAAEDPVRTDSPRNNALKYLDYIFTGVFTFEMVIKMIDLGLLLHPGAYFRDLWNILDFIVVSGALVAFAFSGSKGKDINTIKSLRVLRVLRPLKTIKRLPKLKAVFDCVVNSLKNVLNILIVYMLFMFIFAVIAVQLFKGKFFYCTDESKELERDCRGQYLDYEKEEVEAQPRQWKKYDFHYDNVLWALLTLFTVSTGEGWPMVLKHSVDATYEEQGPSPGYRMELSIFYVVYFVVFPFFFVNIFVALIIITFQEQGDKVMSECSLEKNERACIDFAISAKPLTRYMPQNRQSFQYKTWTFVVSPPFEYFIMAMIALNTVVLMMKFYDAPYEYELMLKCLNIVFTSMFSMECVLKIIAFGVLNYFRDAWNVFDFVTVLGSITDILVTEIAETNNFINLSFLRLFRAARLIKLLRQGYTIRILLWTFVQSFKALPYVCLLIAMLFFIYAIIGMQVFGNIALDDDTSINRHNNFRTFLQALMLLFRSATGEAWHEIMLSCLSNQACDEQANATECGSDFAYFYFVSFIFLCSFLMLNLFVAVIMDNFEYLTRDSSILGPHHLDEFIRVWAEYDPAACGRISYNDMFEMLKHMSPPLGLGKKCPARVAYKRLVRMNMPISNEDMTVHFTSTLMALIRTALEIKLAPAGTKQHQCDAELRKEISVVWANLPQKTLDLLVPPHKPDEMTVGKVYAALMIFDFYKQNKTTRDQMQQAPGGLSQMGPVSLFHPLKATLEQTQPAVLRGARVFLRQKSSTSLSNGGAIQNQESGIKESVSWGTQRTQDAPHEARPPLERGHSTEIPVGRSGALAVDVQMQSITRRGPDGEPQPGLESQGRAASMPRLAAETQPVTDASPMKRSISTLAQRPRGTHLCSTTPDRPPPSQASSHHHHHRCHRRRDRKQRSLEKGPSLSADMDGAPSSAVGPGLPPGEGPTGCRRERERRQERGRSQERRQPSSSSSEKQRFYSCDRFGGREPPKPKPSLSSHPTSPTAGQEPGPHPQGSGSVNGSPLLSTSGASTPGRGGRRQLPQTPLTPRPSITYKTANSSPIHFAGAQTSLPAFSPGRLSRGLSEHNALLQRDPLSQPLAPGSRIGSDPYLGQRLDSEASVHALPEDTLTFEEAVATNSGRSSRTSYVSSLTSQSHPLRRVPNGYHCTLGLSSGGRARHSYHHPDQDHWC
N-type calcium channel, sequence (P54284 whole entry partner): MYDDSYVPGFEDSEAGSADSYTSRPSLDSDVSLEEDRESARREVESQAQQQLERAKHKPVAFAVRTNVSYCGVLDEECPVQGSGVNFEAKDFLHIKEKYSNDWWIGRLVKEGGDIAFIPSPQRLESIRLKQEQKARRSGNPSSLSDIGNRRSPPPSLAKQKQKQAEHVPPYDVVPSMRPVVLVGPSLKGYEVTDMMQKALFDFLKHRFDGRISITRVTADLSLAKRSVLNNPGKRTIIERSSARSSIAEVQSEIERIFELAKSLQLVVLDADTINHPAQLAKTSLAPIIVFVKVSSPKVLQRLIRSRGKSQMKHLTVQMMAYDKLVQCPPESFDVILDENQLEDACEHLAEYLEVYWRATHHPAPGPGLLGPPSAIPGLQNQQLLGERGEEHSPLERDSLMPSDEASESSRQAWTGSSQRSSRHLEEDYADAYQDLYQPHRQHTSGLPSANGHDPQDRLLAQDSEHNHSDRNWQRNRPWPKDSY
N-type calcium channel, sequence (P54289 25-956 partner limits assumed): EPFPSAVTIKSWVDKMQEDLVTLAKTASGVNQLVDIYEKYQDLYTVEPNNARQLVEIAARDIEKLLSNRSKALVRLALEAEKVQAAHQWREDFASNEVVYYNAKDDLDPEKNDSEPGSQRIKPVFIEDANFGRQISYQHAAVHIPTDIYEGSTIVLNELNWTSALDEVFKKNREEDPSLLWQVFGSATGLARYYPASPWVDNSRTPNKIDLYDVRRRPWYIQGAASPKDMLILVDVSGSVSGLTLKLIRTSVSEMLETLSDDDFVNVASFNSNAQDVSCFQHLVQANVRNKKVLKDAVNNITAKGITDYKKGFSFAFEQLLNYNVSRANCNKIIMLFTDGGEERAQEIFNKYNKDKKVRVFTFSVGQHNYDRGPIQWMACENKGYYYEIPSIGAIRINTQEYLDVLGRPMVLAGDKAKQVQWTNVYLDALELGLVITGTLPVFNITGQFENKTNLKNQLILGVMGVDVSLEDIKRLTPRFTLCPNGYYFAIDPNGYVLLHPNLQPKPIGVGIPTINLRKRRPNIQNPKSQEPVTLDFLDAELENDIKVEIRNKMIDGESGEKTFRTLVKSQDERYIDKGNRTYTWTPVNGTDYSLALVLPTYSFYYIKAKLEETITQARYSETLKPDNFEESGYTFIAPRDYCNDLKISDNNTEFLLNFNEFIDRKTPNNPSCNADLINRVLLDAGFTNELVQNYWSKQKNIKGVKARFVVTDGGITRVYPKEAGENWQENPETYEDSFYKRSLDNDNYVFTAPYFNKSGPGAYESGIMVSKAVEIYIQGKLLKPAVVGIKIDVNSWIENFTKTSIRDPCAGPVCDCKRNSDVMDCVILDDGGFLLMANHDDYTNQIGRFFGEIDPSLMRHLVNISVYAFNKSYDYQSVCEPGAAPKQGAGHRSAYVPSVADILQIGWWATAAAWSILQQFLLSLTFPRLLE
N-type calcium channel, sequence (P54289 957-1103 partner limits assumed): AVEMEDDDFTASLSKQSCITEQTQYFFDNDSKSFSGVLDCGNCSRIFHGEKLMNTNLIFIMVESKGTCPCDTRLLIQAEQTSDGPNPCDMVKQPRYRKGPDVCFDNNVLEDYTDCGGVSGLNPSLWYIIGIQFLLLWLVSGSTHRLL

NK-1 receptor = details: phenylbenzoquinone-induced writhing and formalin test; compared with morphine; cited from earlier work

IC50 (N-type calcium channel) [µM]	Structure (SMILES)	also measured
	Clc1ccc(Nc2cc(Nc3ccccc3N3CCOCC3)nc3ccccc23)cc1Cl [Example 2, N4-(3,4-Dichloro-phenyl)-N2-(2-morpholin-4-yl-phenyl)-quinoline-2,4-diamine]	Formalin test % inhibition (dose, time route) [1]: 42 (60, 40, IP) %
4.01	Nc1ccccc1Nc1cc(Nc2ccc(Cl)c(Cl)c2)c2cccc(F)c2n1 [Example 14, N2-(2-Amino-phenyl)-N4-(3,4-dichloro-phenyl)-8-fluoro-quinoline-2,4-diamine]	
9.82	Nc1ccccc1Nc1cc(Nc2ccc(Cl)c(Cl)c2)c2ccccc2n1 [Example 27, N2-(2-amino-phenyl)-N4-(3,4-dichloro-phenyl)-quinoline-2,4-diamine]	
	COc1ccccc1CC(=N)N1C[C@@H]2C(=O)CCC(c3ccccc3)(c3ccccc3)[C@@H]2C1 [RP 67,580]	analgesia in chemo-nociception tests (NK-1 receptor): produced analgesia with potency comparable to that of morphine
